Reference: patent US8796244B2, “Imidazopyridine derivatives as inhibitors of receptor tyrosine kinases” (Astex Therapeutics Ltd, priority 2008, dated 2014)
Structures can show the parent of a compound that is named as a salt. Where two headings read alike, the source gives them in different places.

Columns and labels:
[1] = test system: parental wild-type Ba/F3 cells; test: Ba/F3 (WT) cell proliferation assay (Alamar Blue); format: cell-based; conditions: Mus musculus
[2] = test system: LP-1 cell line (FGF-1/Heparin induced pERK); test: Cell-based pERK ELISA, LP-1 cells; conditions: Homo sapiens; for IC50: LP-1, read-out: LP-1 pERK ELISA (μM)
[3] = BaF3, 72 h, read-out: BaF3 WT prolif (μM)
[4] = BaF3, read-out: BaF3 WT prolif, % inhibition
[5] = BaF3, 72 hours, Alamar Blue, read-out: BaF3 WT prolif

Question: Which IC50 [1, 3] does the source give for `Cc1cnc(-c2ccn3c(-c4cccc(NC(=O)NCC(F)(F)F)c4)cnc3c2)nc1` [Example 58, 1-{3-[7-(5-Methyl-pyrimidin-2-yl)-imidazo[1,2-a]pyridin-3-yl]-phenyl}-3-(2,2,2-trifluoro-ethyl)-urea hydrochloride] here?
Answer: 0.7 µM

Question: What about the IC50 [2] of the same compound?
Answer: 0.077 µM

Question: How did the IC50 [1, 3] turn out when `Cc1ccnc(-c2ccn3c(-c4cccc(NC(=O)NCC(F)(F)F)c4)cnc3c2)n1` [Example 59, 1-{3-[7-(4-Methyl-pyrimidin-2-yl)-imidazo[1,2-a]pyridin-3-yl]-phenyl}-3-(2,2,2-trifluoro-ethyl)-urea hydrochloride] was run?
Answer: 5.1 µM

Question: And the IC50 [2]?
Answer: 0.1 µM

Question: How did the inhibition at 10 µM [1, 4] turn out when `O=C(NCC(F)(F)F)Nc1cccc(-c2cnc3cc(-c4ncc(F)cn4)ccn23)c1` [Example 60, 1-{3-[7-(5-Fluoro-pyrimidin-2-yl)-imidazo[1,2-a]pyridin-3-yl]-phenyl}-3-(2,2,2-trifluoro-ethyl)-urea hydrochloride] was run?
Answer: 0%

Question: And the IC50 [2]?
Answer: 0.087 µM

Question: With `Cc1nccc(-c2ccn3c(-c4cccc(NC(=O)NCC(F)(F)F)c4)cnc3c2)n1` [Example 61, 1-{3-[7-(2-Methyl-pyrimidin-4-yl)-imidazo[1,2-a]pyridin-3-yl]-phenyl}-3-(2,2,2-trifluoro-ethyl)-urea hydrochloride] as the compound, how does the inhibition at 10 µM [1, 4] read?
Answer: 15%

Question: And the IC50 [2]?
Answer: 0.064 µM

Question: Which IC50 [1, 3] does the source give for `Cn1nc(-c2ccn3c(-c4cccc(NC(=O)NCC(F)(F)F)c4)cnc3c2)ccc1=O` [Example 62, 1-{3-[7-(1-Methyl-6-oxo-1,6-dihydro-pyridazin-3-yl)-imidazo[1,2-a]pyridin-3-yl]-phenyl}-3-(2,2,2-trifluoro-ethyl)-urea hydrochloride] here?
Answer: 1.1 µM

Question: And the IC50 [2]?
Answer: 0.11 µM

Question: How did the IC50 [1, 5] turn out when `Cc1ncc(C#Cc2ccn3c(-c4cccc(NC(=O)NCC(F)(F)F)c4)cnc3c2)n1C` [Example 64, 1-{3-[7-(2,3-Dimethyl-3H-imidazol-4-ylethynyl)-imidazo[1,2-a]pyridin-3-yl]-phenyl}-3-(2,2,2-trifluoro-ethyl)-urea] was run?
Answer: 2.5 µM

Question: And the IC50 [2]?
Answer: 0.049 µM

Question: With `CN1CCC(O)(C#Cc2ccn3c(-c4cccc(NC(=O)NCC(F)(F)F)c4)cnc3c2)CC1` [Example 65, 1-{3-[7-(4-Hydroxy-1-methyl-piperidin-4-ylethynyl)-imidazo[1,2-a]pyridin-3-yl]-phenyl}-3-(2,2,2-trifluoro-ethyl)-urea formate] as the compound, how does the inhibition at 10 µM [1, 4] read?
Answer: 8.3%

Question: What about the IC50 [2] of the same compound?
Answer: 1.3 µM

Question: Which IC50 [1, 5] does the source give for `O=C(NCC(F)(F)F)Nc1cccc(-c2cnc3cc(-c4ccc(NCCO)nn4)ccn23)c1` [Example 67, 1-(3-{7-[6-(2-Hydroxy-ethylamino)-pyridazin-3-yl]-imidazo[1,2-a]pyridin-3-yl}-phenyl)-3-(2,2,2-trifluoro-ethyl)-urea] here?
Answer: 2.1 µM

Question: What about the IC50 [2] of the same compound?
Answer: 0.84 µM

Question: How did the inhibition at 10 µM [1, 4] turn out when `NC1CCN(c2ccc(-c3ccn4c(-c5cccc(NC(=O)NCC(F)(F)F)c5)cnc4c3)nn2)CC1` [Example 75, 1-(3-{7-[6-(4-Amino-piperidin-1-yl)-pyridazin-3-yl]-imidazo[1,2-a]pyridin-3-yl}-phenyl)-3-(2,2,2-trifluoro-ethyl)-urea tris-trifluoroacetate] was run?
Answer: 32%

Question: And the IC50 [2]?
Answer: 0.63 µM

Question: What does the source list for `CN1CCC(Nc2ccc(-c3ccn4c(-c5cccc(NC(=O)NCC(F)(F)F)c5)cnc4c3)nn2)CC1` [Example 76, 1-(3-{7-[6-(1-Methyl-piperidin-4-ylamino)-pyridazin-3-yl]-imidazo[1,2-a]pyridin-3-yl}-phenyl)-3-(2,2,2-trifluoro-ethyl)-urea tri-hydrochloride]?
Answer: inhibition at 10 µM [1, 4]: 26%; IC50 [2]: 0.51 µM

Question: `O=C(NCC(F)(F)F)Nc1cccc(-c2cnc3cc(-c4cccnc4)ccn23)c1` [Example 78, 1-[3-(7-Pyridin-3-yl-imidazo[1,2-a]pyridin-3-yl)-phenyl]-3-(2,2,2-trifluoro-ethyl)-urea] was tested. Which IC50 [1, 5] did it give?
Answer: 0.15 µM

Question: What about the IC50 [2] of the same compound?
Answer: 0.017 µM

Question: `CN1CCN(c2ncc(-c3ccn4c(-c5cccc(NC(=O)NCC(F)(F)F)c5)cnc4c3)cn2)CC1` [Example 79, 1-(3-{7-[2-(4-Methyl-piperazin-1-yl)-pyrimidin-5-yl]-imidazo[1,2-a]pyridin-3-yl}-phenyl)-3-(2,2,2-trifluoro-ethyl)-urea bis-formate] was tested. Which IC50 [1, 3] did it give?
Answer: 0.4 µM

Question: What about the IC50 [2] of the same compound?
Answer: 0.035 µM

Question: With `COCCNc1ccc(-c2ccn3c(-c4cccc(NC(=O)NCC(F)(F)F)c4)cnc3c2)nn1` [Example 80, 1-(3-{7-[6-(2-Methoxy-ethylamino)-pyridazin-3-yl]-imidazo[1,2-a]pyridin-3-yl}-phenyl)-3-(2,2,2-trifluoro-ethyl)-urea hydrochloride] as the compound, how does the inhibition at 10 µM [1, 4] read?
Answer: 0%

Question: What about the IC50 [2] of the same compound?
Answer: 0.039 µM

Question: What does the source list for `CC(C)(CO)Nc1ccc(-c2ccn3c(-c4cccc(NC(=O)NCC(F)(F)F)c4)cnc3c2)nn1` [Example 81, 1-(3-{7-[6-(2-Hydroxy-1,1-dimethyl-ethylamino)-pyrid-azin-3-yl]-1,7-dihydro-imidazo[1,2-a]pyridin-3-yl}-phenyl)-3-(2,2,2-trifluoro-ethyl)-urea hydrochloride]?
Answer: inhibition at 3 µM [1, 4]: 20%; IC50 [2]: 0.028 µM

Question: For `Nc1cnc(-c2ccn3c(-c4cccc(NC(=O)NCC(F)(F)F)c4)cnc3c2)cn1` [Example 85, 1-{3-[7-(5-Amino-pyrazin-2-yl)-imidazo[1,2-a]pyridin-3-yl]-phenyl}-3-(2,2,2-trifluoro-ethyl)-urea formate], which IC50 [1, 3] is on record?
Answer: 0.17 µM

Question: And the IC50 [2]?
Answer: 0.065 µM

Question: Which IC50 [1, 3] does the source give for `Cn1ccc(C#Cc2ccn3c(-c4cccc(NC(=O)NCC(F)(F)F)c4)cnc3c2)n1` [Example 86, 1-{3-[7-(1-Methyl-1H-pyrazol-3-ylethynyl)-imidazo[1,2-a]pyridin-3-yl]-phenyl}-3-(2,2,2-trifluoro-ethyl)-urea formate] here?
Answer: 1.9 µM

Question: And the IC50 [2]?
Answer: 0.04 µM

Question: `O=C(NCC(F)(F)F)Nc1cccc(-c2cnc3cc(-c4cnc(N5CC(F)(F)C5)nc4)ccn23)c1` [Example 87, 1-(3-{7-[2-(3,3-Difluoro-azetidin-1-yl)-pyrimidin-5-yl]-imidazo[1,2-a]pyridin-3-yl}-phenyl)-3-(2,2,2-trifluoro-ethyl)-urea bis-trifluoroacetate] was tested. Which IC50 [1, 3] did it give?
Answer: 0.41 µM

Question: What about the IC50 [2] of the same compound?
Answer: 0.072 µM

Question: Which results are given for `O=C(NCC(F)(F)F)Nc1cccc(-c2cnc3cc(-c4ccnnc4)ccn23)c1` [Example 88, 1-[3-(7-Pyridazin-4-yl-imidazo[1,2-a]pyridin-3-yl)-phenyl]-3-(2,2,2-trifluoro-ethyl)-urea formate]?
Answer: inhibition at 10 µM [1, 4]: 0%; inhibition at 10 µM ([2]; LP-1, read-out: LP-1 pERK ELISA, % inhibition): 16%

Question: How did the IC50 [1, 5] turn out when `COc1cnc(-c2ccn3c(-c4cccc(NC(=O)NCC(F)(F)F)c4)cnc3c2)cn1` [Example 89, 1-{3-[7-(5-Methoxy-pyrazin-2-yl)-imidazo[1,2-a]pyridin-3-yl]-phenyl}-3-(2,2,2-trifluoro-ethyl)-urea] was run?
Answer: 0.097 µM

Question: What about the IC50 [2] of the same compound?
Answer: 0.073 µM

Question: Which results are given for `COc1cncc(-c2ccn3c(-c4cccc(NC(=O)NCC(F)(F)F)c4)cnc3c2)n1` [Example 90, 1-{3-[7-(6-Methoxy-pyrazin-2-yl)-imidazo[1,2-a]pyridin-3-yl]-phenyl}-3-(2,2,2-trifluoro-ethyl)-urea formate]?
Answer: IC50 [1, 3]: 0.76 µM; IC50 [2]: 0.092 µM

Question: How did the IC50 [1, 3] turn out when `Cc1ccc(-c2ccn3c(-c4cccc(NC(=O)NCC(F)(F)F)c4)cnc3c2)nc1` [Example 91, 1-{3-[7-(5-Methyl-pyridin-2-yl)-imidazo[1,2-a]pyridin-3-yl]-phenyl}-3-(2,2,2-trifluoro-ethyl)-urea formate] was run?
Answer: 0.1 µM

Question: And the IC50 [2]?
Answer: 0.0079 µM

Question: Which results are given for `O=C(NCC(F)(F)F)Nc1cccc(-c2cnc3cc(-c4ccc(CO)cn4)ccn23)c1` [Example 92, 1-{3-[7-(5-Hydroxymethyl-pyridin-2-yl)-imidazo[1,2-a]pyridin-3-yl]-phenyl}-3-(2,2,2-trifluoro-ethyl)-urea formate]?
Answer: IC50 [1, 3]: 0.53 µM; IC50 [2]: 0.11 µM

Question: `Cc1cnc(-c2ccn3c(-c4cccc(NC(=O)NCC(F)(F)F)c4)cnc3c2)cn1` [Example 93, 1-{3-[7-(5-Methyl-pyrazin-2-yl)-imidazo[1,2-a]pyridin-3-yl]-phenyl}-3-(2,2,2-trifluoro-ethyl)-urea] was tested. Which IC50 [1, 5] did it give?
Answer: 0.043 µM

Question: What about the IC50 [2] of the same compound?
Answer: 0.065 µM

Question: Which results are given for `O=C1CN(c2ncc(-c3ccn4c(-c5cccc(NC(=O)NCC(F)(F)F)c5)cnc4c3)cn2)CCN1` [Example 94, 1-(3-{7-[2-(3-Oxo-piperazin-1-yl)-pyrimidin-5-yl]-imidazo[1,2-a]pyridin-3-yl}-phenyl)-3-(2,2,2-trifluoro-ethyl)-urea hydrochloride]?
Answer: IC50 [1, 3]: 5.8 µM; IC50 [2]: 0.95 µM

Question: What does the source list for `O=C1CN(c2ccc(-c3ccn4c(-c5cccc(NC(=O)NCC(F)(F)F)c5)cnc4c3)nn2)CCN1` [Example 95, 1-(3-{7-[6-(3-Oxo-piperazin-1-yl)-pyridazin-3-yl]-imidazo[1,2-a]pyridin-3-yl}-phenyl)-3-(2,2,2-trifluoro-ethyl)-urea bis-hydrochloride]?
Answer: inhibition at 10 µM [1, 4]: 0%; IC50 [2]: 3.4 µM

Question: `O=C(NCC(F)(F)F)Nc1cccc(-c2cnc3cc(-c4ccc(F)cn4)ccn23)c1` [Example 96, 1-{3-[7-(5-Fluoro-pyridin-2-yl)-imidazo[1,2-a]pyridin-3-yl]-phenyl}-3-(2,2,2-trifluoro-ethyl)-urea bis-hydrochloride] was tested. Which IC50 [1, 3] did it give?
Answer: 1.7 µM

Question: And the IC50 [2]?
Answer: 0.0063 µM

Question: How did the IC50 [1, 3] turn out when `Cc1ccnc(-c2ccn3c(-c4cccc(NC(=O)NCC(F)(F)F)c4)cnc3c2)c1` [Example 97, 1-{3-[7-(4-Methyl-pyridin-2-yl)-imidazo[1,2-a]pyridin-3-yl]-phenyl}-3-(2,2,2-trifluoro-ethyl)-urea bis-hydrochloride] was run?
Answer: 0.44 µM

Question: And the IC50 [2]?
Answer: 0.0081 µM

Question: With `Cc1cccc(-c2ccn3c(-c4cccc(NC(=O)NCC(F)(F)F)c4)cnc3c2)n1` [Example 98, 1-{3-[7-(6-Methyl-pyridin-2-yl)-imidazo[1,2-a]pyridin-3-yl]-phenyl}-3-(2,2,2-trifluoro-ethyl)-urea bis-hydrochloride] as the compound, how does the IC50 [1, 3] read?
Answer: 0.7 µM

Question: And the IC50 [2]?
Answer: 0.02 µM

Question: With `CCOc1cccc(-c2ccn3c(-c4cccc(NC(=O)NCC(F)(F)F)c4)cnc3c2)n1` [Example 99, 1-{3-[7-(6-Ethoxy-pyridin-2-yl)-imidazo[1,2-a]pyridin-3-yl]-phenyl}-3-(2,2,2-trifluoro-ethyl)-urea bis-hydrochloride] as the compound, how does the IC50 [1, 3] read?
Answer: 0.32 µM

Question: And the IC50 [2]?
Answer: 0.063 µM
